Experiments:
Assay in all cases: Kinase selectivity, scanMAX Kinase assay panel (DiscoverX), % control at 1 uM
Assay type in all cases: binding
[1] = molecular target: T1, scanMAX Kinase assay panel (Homo sapiens, UniProt Q02763); conditions: TIE2; 1 uM; read-out: Percent Control (%)
T1 construct: purchased DiscoverX
Outline: (§1)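 1 uM cpd (DMSO) per kinase; % ctrl = [cpd − pos ctrl]/[neg ctrl − pos ctrl] × 100; hit if <35.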

[2] = molecular target: T2, scanMAX Kinase assay panel (Homo sapiens, UniProt P07949, V804M); conditions: RET (V804M); 1 uM; read-out: Percent Control (%)
T2 construct: purchased DiscoverX
T2 sequence (P07949 29-1114 V804M): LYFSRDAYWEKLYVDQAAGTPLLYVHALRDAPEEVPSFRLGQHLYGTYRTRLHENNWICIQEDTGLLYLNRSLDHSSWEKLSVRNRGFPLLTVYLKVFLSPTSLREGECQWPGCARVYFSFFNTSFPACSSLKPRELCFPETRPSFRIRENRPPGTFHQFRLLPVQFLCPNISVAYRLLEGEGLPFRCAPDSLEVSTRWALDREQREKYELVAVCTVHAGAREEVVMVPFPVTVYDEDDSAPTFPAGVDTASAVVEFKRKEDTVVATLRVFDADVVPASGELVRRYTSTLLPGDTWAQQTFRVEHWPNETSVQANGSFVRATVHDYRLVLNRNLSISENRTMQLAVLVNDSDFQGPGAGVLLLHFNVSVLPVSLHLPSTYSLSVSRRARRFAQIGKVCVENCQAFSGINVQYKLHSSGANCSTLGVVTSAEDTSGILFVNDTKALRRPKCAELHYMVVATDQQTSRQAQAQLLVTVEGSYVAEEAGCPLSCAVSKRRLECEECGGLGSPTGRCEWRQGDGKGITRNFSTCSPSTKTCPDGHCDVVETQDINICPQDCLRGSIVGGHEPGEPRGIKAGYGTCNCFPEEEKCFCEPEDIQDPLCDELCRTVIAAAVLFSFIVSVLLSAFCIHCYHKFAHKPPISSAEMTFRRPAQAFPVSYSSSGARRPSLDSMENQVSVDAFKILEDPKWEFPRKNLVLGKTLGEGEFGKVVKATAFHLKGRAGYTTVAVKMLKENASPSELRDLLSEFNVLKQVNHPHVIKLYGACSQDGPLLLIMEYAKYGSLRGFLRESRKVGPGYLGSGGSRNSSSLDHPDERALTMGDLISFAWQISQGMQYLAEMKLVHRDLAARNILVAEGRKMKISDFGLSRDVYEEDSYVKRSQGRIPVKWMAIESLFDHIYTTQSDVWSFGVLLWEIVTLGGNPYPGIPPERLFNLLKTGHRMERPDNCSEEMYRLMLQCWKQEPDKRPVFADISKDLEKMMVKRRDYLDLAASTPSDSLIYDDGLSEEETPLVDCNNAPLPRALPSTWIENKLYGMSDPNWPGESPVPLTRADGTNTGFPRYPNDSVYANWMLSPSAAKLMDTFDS
Outline: as §1

[3] = molecular target: T3, scanMAX Kinase assay panel (Homo sapiens, UniProt P43403); conditions: ZAP70; 1 uM; read-out: Percent Control (%)
T3 construct: purchased DiscoverX
T3 sequence (P43403 1-619): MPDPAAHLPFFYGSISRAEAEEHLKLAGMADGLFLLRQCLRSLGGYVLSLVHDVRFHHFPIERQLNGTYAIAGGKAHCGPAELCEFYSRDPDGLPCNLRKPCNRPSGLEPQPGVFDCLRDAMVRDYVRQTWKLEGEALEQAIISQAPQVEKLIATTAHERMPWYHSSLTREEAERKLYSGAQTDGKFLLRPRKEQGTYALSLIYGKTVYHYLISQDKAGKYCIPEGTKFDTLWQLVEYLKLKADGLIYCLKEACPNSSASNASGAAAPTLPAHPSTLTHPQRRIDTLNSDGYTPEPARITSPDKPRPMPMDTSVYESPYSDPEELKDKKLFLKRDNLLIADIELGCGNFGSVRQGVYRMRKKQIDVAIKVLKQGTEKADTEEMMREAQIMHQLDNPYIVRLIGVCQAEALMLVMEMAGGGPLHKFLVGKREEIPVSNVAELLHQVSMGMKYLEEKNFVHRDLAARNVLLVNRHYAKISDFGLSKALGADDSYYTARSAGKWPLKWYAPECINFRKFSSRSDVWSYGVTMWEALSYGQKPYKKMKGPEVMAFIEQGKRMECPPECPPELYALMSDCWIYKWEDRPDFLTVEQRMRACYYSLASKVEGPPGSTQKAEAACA
Outline: as §1

[4] = molecular target: T4, scanMAX Kinase assay panel (Homo sapiens, UniProt P36896); conditions: ACVR1B; 1 uM; read-out: Percent Control (%)
T4 construct: purchased DiscoverX
T4 sequence (P36896 24-505): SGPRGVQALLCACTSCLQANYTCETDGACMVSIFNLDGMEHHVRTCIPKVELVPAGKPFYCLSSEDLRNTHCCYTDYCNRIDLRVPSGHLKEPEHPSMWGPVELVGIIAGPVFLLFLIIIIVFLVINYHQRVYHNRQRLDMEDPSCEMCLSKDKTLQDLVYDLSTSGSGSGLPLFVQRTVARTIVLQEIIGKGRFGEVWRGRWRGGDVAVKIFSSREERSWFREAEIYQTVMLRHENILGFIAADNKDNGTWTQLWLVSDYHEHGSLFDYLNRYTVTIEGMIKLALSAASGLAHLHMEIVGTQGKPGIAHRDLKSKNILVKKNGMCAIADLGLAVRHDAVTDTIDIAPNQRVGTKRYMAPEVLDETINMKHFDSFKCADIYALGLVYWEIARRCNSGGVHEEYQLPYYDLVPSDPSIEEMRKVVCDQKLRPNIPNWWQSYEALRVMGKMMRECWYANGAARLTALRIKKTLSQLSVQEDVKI
Outline: as §1

[5] = molecular target: T5, scanMAX Kinase assay panel (Homo sapiens, UniProt O43293); conditions: DAPK3; 1 uM; read-out: Percent Control (%)
T5 construct: purchased DiscoverX
Outline: as §1

[6] = molecular target: T6, scanMAX Kinase assay panel (Homo sapiens, UniProt P36888, D835V); conditions: FLT3 (D835V); 1 uM; read-out: Percent Control (%)
T6 construct: purchased DiscoverX
T6 sequence (P36888 27-993 D835V): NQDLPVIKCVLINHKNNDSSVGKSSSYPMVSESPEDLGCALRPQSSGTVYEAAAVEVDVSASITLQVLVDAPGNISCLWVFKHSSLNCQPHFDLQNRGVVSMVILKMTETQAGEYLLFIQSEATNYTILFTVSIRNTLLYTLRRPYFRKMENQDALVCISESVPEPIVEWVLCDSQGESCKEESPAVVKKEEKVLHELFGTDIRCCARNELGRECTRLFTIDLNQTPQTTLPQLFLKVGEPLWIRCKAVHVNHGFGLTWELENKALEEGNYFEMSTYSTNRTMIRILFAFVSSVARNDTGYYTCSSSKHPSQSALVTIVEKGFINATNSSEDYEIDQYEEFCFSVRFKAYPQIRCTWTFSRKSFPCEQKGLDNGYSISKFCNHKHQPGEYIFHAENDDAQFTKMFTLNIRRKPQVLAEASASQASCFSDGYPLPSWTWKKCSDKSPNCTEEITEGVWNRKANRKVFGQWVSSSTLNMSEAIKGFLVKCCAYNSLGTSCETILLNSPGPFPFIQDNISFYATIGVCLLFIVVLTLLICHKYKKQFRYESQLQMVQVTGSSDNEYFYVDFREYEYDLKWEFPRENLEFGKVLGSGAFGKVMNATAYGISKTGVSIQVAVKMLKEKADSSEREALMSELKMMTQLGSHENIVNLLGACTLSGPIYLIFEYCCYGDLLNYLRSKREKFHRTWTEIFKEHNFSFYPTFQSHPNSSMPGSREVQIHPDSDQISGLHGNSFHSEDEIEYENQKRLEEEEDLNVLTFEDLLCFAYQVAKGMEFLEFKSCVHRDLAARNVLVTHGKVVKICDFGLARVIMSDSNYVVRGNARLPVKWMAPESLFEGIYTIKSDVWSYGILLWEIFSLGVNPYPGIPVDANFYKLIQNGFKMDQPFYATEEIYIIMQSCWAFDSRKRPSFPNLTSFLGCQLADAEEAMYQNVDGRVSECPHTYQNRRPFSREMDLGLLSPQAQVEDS
Outline: as §1

[7] = molecular target: T7, scanMAX Kinase assay panel (Homo sapiens, UniProt Q9Y2H9); conditions: MAST1; 1 uM; read-out: Percent Control (%)
T7 construct: purchased DiscoverX
T7 sequence (Q9Y2H9 whole entry): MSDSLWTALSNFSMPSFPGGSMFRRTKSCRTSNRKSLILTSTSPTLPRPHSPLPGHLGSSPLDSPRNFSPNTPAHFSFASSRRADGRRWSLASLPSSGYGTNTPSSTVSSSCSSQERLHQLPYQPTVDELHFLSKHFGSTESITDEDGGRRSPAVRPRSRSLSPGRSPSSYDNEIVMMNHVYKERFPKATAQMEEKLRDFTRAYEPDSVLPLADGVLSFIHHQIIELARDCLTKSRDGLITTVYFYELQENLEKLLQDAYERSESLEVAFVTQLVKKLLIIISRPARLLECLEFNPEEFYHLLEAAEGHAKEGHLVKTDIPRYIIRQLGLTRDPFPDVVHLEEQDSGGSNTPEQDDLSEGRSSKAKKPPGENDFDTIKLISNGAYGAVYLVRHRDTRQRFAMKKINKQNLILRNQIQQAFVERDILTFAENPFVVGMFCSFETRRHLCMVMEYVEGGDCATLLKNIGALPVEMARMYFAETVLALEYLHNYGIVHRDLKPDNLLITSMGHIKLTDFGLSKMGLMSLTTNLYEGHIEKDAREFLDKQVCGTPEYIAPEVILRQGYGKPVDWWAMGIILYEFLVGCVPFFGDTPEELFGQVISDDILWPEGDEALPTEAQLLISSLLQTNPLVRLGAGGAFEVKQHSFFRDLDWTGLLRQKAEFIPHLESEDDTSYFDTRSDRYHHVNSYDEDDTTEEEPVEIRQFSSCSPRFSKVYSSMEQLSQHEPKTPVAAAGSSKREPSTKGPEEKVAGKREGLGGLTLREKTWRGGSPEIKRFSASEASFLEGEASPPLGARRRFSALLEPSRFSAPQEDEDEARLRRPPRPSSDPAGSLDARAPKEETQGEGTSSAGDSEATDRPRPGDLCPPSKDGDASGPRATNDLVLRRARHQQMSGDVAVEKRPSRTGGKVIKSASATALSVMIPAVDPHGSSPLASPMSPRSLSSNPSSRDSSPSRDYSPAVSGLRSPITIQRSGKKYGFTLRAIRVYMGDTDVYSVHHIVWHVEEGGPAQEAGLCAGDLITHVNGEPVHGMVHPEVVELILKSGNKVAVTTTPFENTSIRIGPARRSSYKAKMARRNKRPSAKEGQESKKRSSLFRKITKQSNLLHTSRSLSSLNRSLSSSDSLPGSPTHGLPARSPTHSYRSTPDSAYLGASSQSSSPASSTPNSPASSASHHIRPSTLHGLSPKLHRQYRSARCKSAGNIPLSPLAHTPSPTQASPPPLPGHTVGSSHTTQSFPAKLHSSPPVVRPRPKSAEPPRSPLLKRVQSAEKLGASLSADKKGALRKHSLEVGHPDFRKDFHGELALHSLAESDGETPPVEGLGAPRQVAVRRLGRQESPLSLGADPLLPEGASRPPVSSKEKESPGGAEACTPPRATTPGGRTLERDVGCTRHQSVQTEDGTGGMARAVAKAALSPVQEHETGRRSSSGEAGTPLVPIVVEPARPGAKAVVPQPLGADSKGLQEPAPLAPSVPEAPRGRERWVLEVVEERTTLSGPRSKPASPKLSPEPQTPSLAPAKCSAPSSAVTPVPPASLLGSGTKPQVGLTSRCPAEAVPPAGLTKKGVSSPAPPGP
Outline: as §1

[8] = molecular target: T8, scanMAX Kinase assay panel (Homo sapiens, UniProt P80192); conditions: MLK1; 1 uM; read-out: Percent Control (%)
T8 construct: purchased DiscoverX
T8 sequence (P80192 whole entry): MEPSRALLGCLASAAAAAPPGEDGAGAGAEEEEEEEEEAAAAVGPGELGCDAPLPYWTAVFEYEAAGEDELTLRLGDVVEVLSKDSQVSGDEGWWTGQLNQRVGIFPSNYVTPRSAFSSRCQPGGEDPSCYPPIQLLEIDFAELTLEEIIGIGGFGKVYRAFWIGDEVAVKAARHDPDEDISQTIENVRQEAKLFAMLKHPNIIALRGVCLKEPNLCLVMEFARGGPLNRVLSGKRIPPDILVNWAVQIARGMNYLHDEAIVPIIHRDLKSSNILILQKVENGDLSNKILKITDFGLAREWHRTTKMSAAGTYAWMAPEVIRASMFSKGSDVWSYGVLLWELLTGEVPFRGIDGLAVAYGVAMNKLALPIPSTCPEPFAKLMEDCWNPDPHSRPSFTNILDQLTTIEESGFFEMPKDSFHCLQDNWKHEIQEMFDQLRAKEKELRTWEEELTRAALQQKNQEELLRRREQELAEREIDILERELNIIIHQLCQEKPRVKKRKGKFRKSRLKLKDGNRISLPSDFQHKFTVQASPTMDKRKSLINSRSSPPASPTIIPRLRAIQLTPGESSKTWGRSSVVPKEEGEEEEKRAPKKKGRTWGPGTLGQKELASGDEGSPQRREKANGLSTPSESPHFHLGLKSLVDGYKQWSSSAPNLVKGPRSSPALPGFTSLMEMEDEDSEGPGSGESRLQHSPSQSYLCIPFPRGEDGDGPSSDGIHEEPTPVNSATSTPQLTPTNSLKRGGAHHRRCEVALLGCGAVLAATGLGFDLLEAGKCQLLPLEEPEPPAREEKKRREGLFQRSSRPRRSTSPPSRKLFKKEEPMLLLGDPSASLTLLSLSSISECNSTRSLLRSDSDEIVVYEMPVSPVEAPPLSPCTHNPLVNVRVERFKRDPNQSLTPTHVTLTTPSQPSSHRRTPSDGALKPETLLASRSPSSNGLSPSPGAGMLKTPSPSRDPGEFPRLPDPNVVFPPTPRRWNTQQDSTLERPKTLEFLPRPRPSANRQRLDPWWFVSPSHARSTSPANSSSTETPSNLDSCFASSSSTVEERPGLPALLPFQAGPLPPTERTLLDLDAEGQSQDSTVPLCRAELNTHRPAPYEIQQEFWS
Outline: as §1

T1 sequence (Q02763 23-1124): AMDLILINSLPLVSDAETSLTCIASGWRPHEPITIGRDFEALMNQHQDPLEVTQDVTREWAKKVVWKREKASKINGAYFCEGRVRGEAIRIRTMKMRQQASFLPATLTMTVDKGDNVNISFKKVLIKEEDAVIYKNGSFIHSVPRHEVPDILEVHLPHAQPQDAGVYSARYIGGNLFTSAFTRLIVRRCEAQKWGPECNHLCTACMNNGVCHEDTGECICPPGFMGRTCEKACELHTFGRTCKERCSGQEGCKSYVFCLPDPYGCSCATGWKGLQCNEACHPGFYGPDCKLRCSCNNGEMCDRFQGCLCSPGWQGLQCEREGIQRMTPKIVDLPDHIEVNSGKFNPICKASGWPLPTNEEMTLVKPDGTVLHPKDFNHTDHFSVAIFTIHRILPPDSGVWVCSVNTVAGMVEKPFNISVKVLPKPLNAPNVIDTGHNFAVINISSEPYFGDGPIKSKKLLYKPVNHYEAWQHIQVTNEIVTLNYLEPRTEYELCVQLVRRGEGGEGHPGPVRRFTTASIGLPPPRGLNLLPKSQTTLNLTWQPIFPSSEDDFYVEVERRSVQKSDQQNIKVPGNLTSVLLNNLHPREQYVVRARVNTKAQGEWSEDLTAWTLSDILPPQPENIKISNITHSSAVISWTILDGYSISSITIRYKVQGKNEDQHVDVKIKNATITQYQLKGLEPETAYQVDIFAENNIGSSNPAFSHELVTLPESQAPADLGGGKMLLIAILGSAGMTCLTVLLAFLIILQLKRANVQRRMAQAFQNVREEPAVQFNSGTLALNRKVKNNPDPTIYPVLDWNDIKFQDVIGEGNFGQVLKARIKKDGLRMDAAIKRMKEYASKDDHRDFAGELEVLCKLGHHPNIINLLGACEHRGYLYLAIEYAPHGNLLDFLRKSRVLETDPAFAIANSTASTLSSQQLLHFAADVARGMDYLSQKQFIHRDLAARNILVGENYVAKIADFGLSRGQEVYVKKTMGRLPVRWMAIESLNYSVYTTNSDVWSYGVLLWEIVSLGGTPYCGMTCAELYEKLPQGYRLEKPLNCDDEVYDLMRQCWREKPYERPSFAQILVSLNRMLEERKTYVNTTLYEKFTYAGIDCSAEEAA

Compound	remaining binding at 1 µM [1] [%]	remaining binding at 1 µM [2] [%]	remaining binding at 1 µM [3] [%]	remaining binding at 1 µM [4] [%]	remaining binding at 1 µM [5] [%]	remaining binding at 1 µM [6] [%]	remaining binding at 1 µM [7] [%]	remaining binding at 1 µM [8] [%]
Cc1ccc(C(=O)Nc2ccc(CN3CCN(C)CC3)c(C(F)(F)F)c2)cc1C#Cc1cnc2c(Nc3cnn(C)c3)cccn12 [Example 1, 4-methyl-3-((8-((1-methyl-1H-pyrazol-4-yl)amino)imidazo[1,2-a]pyridin-3-yl)ethynyl)-N-(4-((4-methylpiperazin-1-yl)methyl)-3-(trifluoromethyl)phenyl)benzamide]	0	0	26	89	68	0	81	3
Cc1cn(-c2cc(NC(=O)c3ccc(C)c(C#Cc4cnc5c(Nc6cnn(C)c6)cccn45)c3)cc(C(F)(F)F)c2)cn1 [Example 12, 4-methyl-N-(3-(4-methyl-1H-imidazol-1-yl)-5-(trifluoromethyl)phenyl)-3-((8-((1-methyl-1H-pyrazol-4-yl)amino)imidazo[1,2-a]pyridin-3-yl)ethynyl)benzamide]	0	1	100	94	100	27	56	35
Cc1ccc(NC(=O)C2(C(=O)Nc3ccc(F)cc3)CC2)cc1C#Cc1cnc2c(Nc3cnn(C(C)C)c3)cccn12 [Example 78]	16	100	96	100	100	87	82	100

Source: patent US10870647B2, “Imidazopyridine derivative, method for preparing same, and pharmaceutical composition containing same as active ingredient for preventing or treating cancer” (DAEGU-GYEONGBUK MEDICAL INNOVATION FOUNDATION, priority 2016, dated 2020)
